The record followed here is patent US7915270B2, “Oxazole ketones as modulators of fatty acid amide hydrolase” (The Scripps Research Institute, priority 2006, dated 2011).

Molecules are shown by their SMILES.

Usually Vd stands for a proportionality between amount in the body and measured concentration, not a real space. Low readings indicate little distribution into tissue, high ones wide distribution into tissue. Broadly, the clearance is a measure of how efficiently the substance is removed, as volume per time. Read a low clearance as a low capacity for elimination. The half-life is the time in which the quantity being followed falls by half. A word on the IC50: it is the point on the concentration scale where inhibition reaches its midpoint. Low readings indicate greater potency in that assay, high ones weaker potency in that assay.

Data set [1] in a line: Pharmacokinetic testing, intravenous bolus in rats. In kind it is in vivo. The note with it: rat, plasma, 2 mg/kg, male Sprague Dawley rats, 1 mg/mL in 2 mL/kg. On the procedure: For each test compound, two male Sprague Dawley Rats (Charles River Laboratories; approx. 300 g body weight) were used. Animals were individually housed, provided food and water ad libitum, and were maintained on a 12 h light and dark cycle. Animals received from the vendor were surgically cannulated by the vendor with right jugular vein and left carotid artery catheters. Animals were acclimatized for at least 5 days after receipt from the vendor prior to investigations.
Animals received a bolus intravenous dose of the test compound at a dose of 1 mg/mL in a volume of 2 mL/kg via the right jugular vein catheter. The intravenous dosing solution was prepared in 55% pharmasolve, 20% cremophor, and […] physiological saline, or 100% saline adjusted to pH 8.0.
Following intravenous administration, blood was collected (sampled 0.35 mL per time point from the left carotid artery catheter) at 0.083, 0.25, 0.5, 1, 2, 4, and 6 h post-dose. Blood was collected into tubes containing EDTA and stored at 4° C. for not more than 2 h. The samples were centrifuged at 10,000 rpm in a micro-centrifuge for 5 min to obtain a plasma fraction. The plasma was stored at between −20 and −80° C. until processed for analysis. These samples were analyzed by LC-MS/MS to determine the plasma level of the compound.
Plasma level vs. time plots were created and WinNonlin (Pharsight Corp.) was used to analyze the data. A non-compartmental pharmacokinetic model was used to determine the pharmacokinetic parameters, including clearance, volume of distribution (Vd), and half-life (t1/2).

The target of another data set is T1, FAAH (Homo sapiens, UniProt O00519).
T1 sequence (O00519 1-579): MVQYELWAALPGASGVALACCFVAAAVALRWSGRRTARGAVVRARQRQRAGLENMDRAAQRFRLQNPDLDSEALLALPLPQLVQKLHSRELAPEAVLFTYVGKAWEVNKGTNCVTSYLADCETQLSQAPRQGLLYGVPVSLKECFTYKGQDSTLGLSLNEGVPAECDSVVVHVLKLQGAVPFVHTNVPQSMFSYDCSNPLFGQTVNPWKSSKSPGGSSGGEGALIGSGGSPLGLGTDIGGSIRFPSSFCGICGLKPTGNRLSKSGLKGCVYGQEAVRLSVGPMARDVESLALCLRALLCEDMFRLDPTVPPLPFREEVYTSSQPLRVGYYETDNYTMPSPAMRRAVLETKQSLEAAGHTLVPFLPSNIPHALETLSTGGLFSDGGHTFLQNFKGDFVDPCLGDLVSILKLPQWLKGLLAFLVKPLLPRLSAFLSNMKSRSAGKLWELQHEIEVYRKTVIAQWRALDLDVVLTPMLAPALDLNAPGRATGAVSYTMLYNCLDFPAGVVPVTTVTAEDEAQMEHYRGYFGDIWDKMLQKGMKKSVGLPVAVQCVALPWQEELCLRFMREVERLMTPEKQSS
Nature of the data set: Assay Method 1B: FAAH assay, 3H-anandamide hydrolysis in cell homogenate (T84 or SK-N-MC cells transfected with human FAAH). The note with it: 3H-AEA 80 nM, rt 1 h, pH 9. In kind it is biochemical. Further details: expressed in transfected cells.

In data set [1], `O=C(O)c1cccc(-c2cnc(C(=O)CCCCCCc3ccccc3)o2)n1` [Example 37, 6-(2-(7-Phenylheptanoyl)oxazol-5-yl)picolinic acid] showed a Vd of 0.86 L/kg, a clearance of 7.67 mL/min/kg and a half-life of 74.4 min. The molecule also had an IC50 at FAAH of 0.4 nM.

In data set [1], `O=C(O)c1ccc(-c2cnc(C(=O)CCCCCCc3ccccc3)o2)nc1` [Example 38, 6-(2-(7-Phenylheptanoyl)oxazol-5-yl)nicotinic acid] had a Vd of 1.4 L/kg, a clearance of 112 mL/min/kg and a half-life of 9 min. At FAAH, this molecule came in with a half-maximal inhibitory concentration (IC50) of 0.2 nM.
